System: STZ induced diabetic rats
Experiment: Reduction in serum glucose in STZ induced diabetic rats
Type: in vivo, Wistar rats
Conditions: 10 IU/Kg insulin via subcutaneous route
Description: Wistar rats (150-200 g) of both sexes were obtained from National Institute of Nutrition, Hyderabad. The animals were housed at a room temperature of 22±2° C. with 12 h light/dark cycle and 45-50% relative humidity. The animals had ad libitum access to a standard chow diet (Nutrilab, Banglore) and water except, wherever indicated. After randomization into various groups, the rats were acclimatized for a period of seven days in the new environment before initiation of the experiment.
Diabetes was induced by streptozotocin (STZ) injection. STZ in rats leads to the development of a clinical syndrome characterized by hyperglycemia, excessive osmotic diuresis, and loss of weight, which is similar to human diabetes. Moreover, the STZ-diabetic rat develops the usual chronic microvascular complications (nephropathy, peripheral and autonomic neuropathy) as observed in diabetic patients. Schaan, B. D., et al. Braz J Med Biol Res, 37:12:1895-1902 (2004).
Animals were made diabetic by injecting 50-60 mg/kg STZ dissolved in sodium citrate buffer, pH 4.5. Rats were fasted overnight before STZ administration. STZ-treated rats were used only when they developed elevated plasma glucose levels (confirmed by qualitative measurements of blood glucose >300 mg% 48 h after injection). Metabolic control was evaluated on the basis of plasma glucose and animal weight at the end of the experiments.
The diabetic rats were randomly divided in to six groups consisting of 4 animals. The lyophilized lectin coupled insulin loaded solid lipid nanoparticle formulations (F1, F2, F3 and F4), mentioned in the above examples, containing 10 IU/Kg of total insulin were administered orally to the respective groups after re-dispersing in the appropriate volume of physiological saline solution. The fifth group was treated with 10 IU/Kg of insulin via subcutaneous route and the sixth group was the control group. The control diabetic rats were not treated with insulin or any drug, but an equivalent volume of physiological saline solution was given orally.
The blood samples were collected at each scheduled time intervals. The plasma was separated by centrifugation and serum glucose levels were estimated as described in Bergmeyer, H. U. Methods of Enzymatic Analysis New York: Academic (1974). Plasma samples of all animals were stored at −80° C. until analyzed.

insulin [Unencapsulated Insulin]
Mean % Reduction in serum Glucose Levels (2.0 hrs): 8.2 ± 2.3% | Mean % Reduction in serum Glucose Levels (3.0 hrs): 15.1 ± 1.2% | Mean % Reduction in serum Glucose Levels (4.0 hrs): 23.2 ± 3.2% | Mean % Reduction in serum Glucose Levels (5.0 hrs): 36.2 ± 1.2% | Mean % Reduction in serum Glucose Levels (6.0 hrs): 12.1 ± 4.3% | Mean % Reduction in serum Glucose Levels (8.0 hrs): 19.2 ± 3.3% | Mean % Reduction in serum Glucose Levels (10.0 hrs): 25.1 ± 3.2% | Mean % Reduction in serum Glucose Levels (12.0 hrs): 29.2 ± 1.2%
